Reference: US11084800B2 (Achillion Pharmaceuticals, Inc., priority 2017, dated 2021)

target: Human Factor D (Homo sapiens (Human), UniProt P00746); experiment: Human Factor D Assay; assay type: biochemical; details: Factor D inhibition, assay of Example 10; read-out: IC5 (Stars)
Summary of the method: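 Serum-purified Factor D (80 nM final) preincubated 5 min at room temperature with compound in 50 mM Tris, 1 M NaCl, pH 7.5. Z-L-Lys-SBz and DTNB added at 100 μM each; A405 followed every 30 s for 30 min. IC50 from nonlinear regression of rates versus concentration.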

Chain of Human Factor D (P00746 26-253): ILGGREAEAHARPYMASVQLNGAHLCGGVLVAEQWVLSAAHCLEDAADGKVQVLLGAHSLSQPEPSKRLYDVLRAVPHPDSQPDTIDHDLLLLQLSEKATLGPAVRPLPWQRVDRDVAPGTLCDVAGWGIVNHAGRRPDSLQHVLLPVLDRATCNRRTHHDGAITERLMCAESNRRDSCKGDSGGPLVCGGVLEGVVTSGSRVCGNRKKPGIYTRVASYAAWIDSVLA

Structure (SMILES)	IC50
CC(=O)c1nn(CC(=O)N2[C@H](C(=O)Nc3nc(Br)ccc3CCCN3CCOCC3)C[C@@]3(C)C[C@@H]23)c2cnc(-c3cnc(C)nc3)cc12 [Compound 400, (1R,3S,5R)-2-(2-(3-Acetyl-5-(2-methylpyrimidin-5-yl)-1H-pyrazolo[3,4-c]pyridin-1-yl)acetyl)-N-(6-bromo-3-(3-morpholinopropyl)pyridin-2-yl)-5-methyl-2-azabicyclo[3.1.0]hexane-3-carboxamide]	< 1000 nM
Cc1ncc(-c2cc3c(C(C)O)nn(CC(=O)N4[C@H](C(=O)Nc5nc(Br)ccc5C)C[C@@]5(C)C[C@@H]45)c3cn2)cn1 (stereo partly drawn) [Compound 402, (1R,3S,5R)-N-(6-bromo-3-methylpyridin-2-yl)-2-(2-(3-(1-hydroxyethyl)-5-(2-methylpyrimidin-5-yl)-1H-pyrazolo[3,4-c]pyridin-1-yl)acetyl)-5-methyl-2-azabicyclo[3.1.0]hexane-3-carboxamide]	1000 to 10000 nM
Cc1ncc(-c2cc(C)c3c(c2)c(C#N)nn3CC(=O)N2[C@H](C(=O)Nc3nc(Br)ccc3C)C[C@@]3(C)C[C@@H]23)cn1 [Compound 407, (1R,3S,5R)-N-(6-bromo-3-methylpyridin-2-yl)-2-(2-(3-cyano-7-methyl-5-(2-methylpyrimidin-5-yl)-1H-indazol-1-yl)acetyl)-5-methyl-2-azabicyclo[3.1.0]hexane-3-carboxamide]	< 1000 nM
CC(=O)c1nn(CC(=O)N2[C@H](C(=O)Nc3nc(Br)ccc3CN(C)C)C[C@@]3(C)C[C@@H]23)c2c(Cl)cc(-c3cnc(C)nc3)cc12 [Compound 408, (1R,3S,5R)-2-(2-(3-acetyl-7-chloro-5-(2-methylpyrimidin-5-yl)-1H-indazol-1-yl)acetyl)-N-(6-bromo-3-((dimethylamino)methyl)pyridin-2-yl)-5-methyl-2-azabicyclo[3.1.0]hexane-3-carboxamide]	< 1000 nM
CC(=O)c1nn(CC(=O)N2[C@H](C(=O)Nc3nc(Br)ccc3C)C[C@@]3(Cc4nc(C)no4)C[C@@H]23)c2c(CF)cc(-c3cnc(C)nc3)cc12 [Compound 409, (1R,3S,5R)-2-(2-(3-acetyl-7-(fluoromethyl)-5-(2-methylpyrimidin-5-yl)-1H-indazol-1-yl)acetyl)-N-(6-bromo-3-methylpyridin-2-yl)-5-((3-methyl-1,2,4-oxadiazol-5-yl)methyl)-2-azabicyclo[3.1.0]hexane-3-carboxamide]	< 1000 nM
CC(=O)c1nn(CC(=O)N2C[C@@](F)(CF)C[C@H]2C(=O)Nc2nc(Br)ccc2C)c2c(C)nc(-c3cnc(C)nc3)cc12 [Compound 410, (2S,4R)-1-(2-(3-acetyl-7-methyl-5-(2-methylpyrimidin-5-yl)-1H-pyrazolo[3,4-c]pyridin-1-yl)acetyl)-N-(6-bromo-3-methylpyridin-2-yl)-4-fluoro-4-(fluoromethyl)pyrrolidine-2-carboxamide]	< 1000 nM
CC(=O)c1nn(CC(=O)N2C[C@H]3C[C@H]3[C@H]2C(=O)NCc2cccc(Cl)c2F)c2c(C)nc(-c3cnc(C)nc3)cc12 [Compound 411, (1R,2S,5S)-3-(2-(3-acetyl-7-methyl-5-(2-methylpyrimidin-5-yl)-1H-pyrazolo[3,4-c]pyridin-1-yl)acetyl)-N-(3-chloro-2-fluorobenzyl)-3-azabicyclo[3.1.0]hexane-2-carboxamide]	< 1000 nM
CC(=O)c1nn(CC(=O)N2C[C@H]3C[C@H]3[C@H]2C(=O)NCc2cccc(Cl)c2F)c2ccc(-c3cnc(C)nc3)cc12 [Compound 412, (1R,2S,5S)-3-(2-(3-acetyl-5-(2-methylpyrimidin-5-yl)-1H-indazol-1-yl)acetyl)-N-(3-chloro-2-fluorobenzyl)-3-azabicyclo[3.1.0]hexane-2-carboxamide]	< 1000 nM
CC(=O)c1nn(CC(=O)N2C[C@H]3C[C@H]3[C@H]2C(=O)NCc2cccc(Cl)c2F)c2c(C)cc(-c3cnc(C)nc3)cc12 [Compound 413]	< 1000 nM
CC(=O)c1nn(CC(=O)N2[C@H](C(=O)Nc3nc(Br)ccc3C)C[C@@]3(CN(C(C)C)C(C)C)C[C@@H]23)c2c(C)cc(-c3cnc(C)nc3)cc12 [Compound 415, (1R,3S,5R)-2-(2-(3-acetyl-7-methyl-5-(2-methylpyrimidin-5-yl)-1H-indazol-1-yl)acetyl)-N-(6-bromo-3-methylpyridin-2-yl)-5-((diisopropylamino)methyl)-2-azabicyclo[3.1.0]hexane-3-carboxamide]	< 1000 nM
CC(=O)c1cn(CC(=O)N2[C@H](C(=O)Nc3nc(Br)ccc3C)C[C@@]3(C)C[C@@H]23)c2ccc(-c3cnc(C)nc3)cc12 [Compound 416, (1R,3S,5R)-2-(2-(3-acetyl-5-(2-methylpyrimidin-5-yl)-1H-indol-1-yl)acetyl)-N-(6-bromo-3-methylpyridin-2-yl)-5-methyl-2-azabicyclo[3.1.0]hexane-3-carboxamide]	< 1000 nM
CC(=O)c1nn(CC(=O)N2C[C@@](F)(CF)C[C@H]2C(=O)Nc2nc(Br)c(F)cc2C)c2c(C)nc(-c3cnc(C)nc3)cc12 [Compound 417, (2S,4R)-1-(2-(3-acetyl-7-methyl-5-(2-methylpyrimidin-5-yl)-1H-pyrazolo[3,4-c]pyridin-1-yl)acetyl)-N-(6-bromo-5-fluoro-3-methylpyridin-2-yl)-4-fluoro-4-(fluoromethyl)pyrrolidine-2-carboxamide]	< 1000 nM
CC(=O)c1nn(CC(=O)N2C[C@@](F)(CF)C[C@H]2C(=O)Nc2cncc(Br)n2)c2c(C)nc(-c3cnc(C)nc3)cc12 [Compound 418, (2S,4R)-1-(2-(3-acetyl-7-methyl-5-(2-methylpyrimidin-5-yl)-1H-pyrazolo[3,4-c]pyridin-1-yl)acetyl)-N-(6-bromopyrazin-2-yl)-4-fluoro-4-(fluoromethyl)pyrrolidine-2-carboxamide]	< 1000 nM
CC(=O)c1nn(CC(=O)N2C[C@](F)(Cn3ccnn3)C[C@H]2C(=O)Nc2nc(Br)ccc2C)c2ccc(-c3cnc(C)nc3)cc12 [Compound 419]	< 1000 nM
CC(=O)c1nn(CC(=O)N2C[C@](F)(CN(C)C)C[C@H]2C(=O)Nc2nc(Br)ccc2C)c2ccc(-c3cnc(C)nc3)cc12 [Compound 420, (2S,4R)-1-(2-(3-acetyl-5-(2-methylpyrimidin-5-yl)-1H-indazol-1-yl)acetyl)-N-(6-bromo-3-methylpyridin-2-yl)-4-((dimethylamino)methyl)-4-fluoropyrrolidine-2-carboxamide]	1000 to 10000 nM
CC(=O)c1nn(CC(=O)N2C[C@](F)(CF)C[C@H]2C(=O)Nc2nc(Br)ccc2C)c2ccc(-c3cnc(C)nc3)cc12 [Compound 422, (2S,4S)-1-(2-(3-acetyl-5-(2-methylpyrimidin-5-yl)-1H-indazol-1-yl)acetyl)-N-(6-bromo-3-methylpyridin-2-yl)-4-fluoro-4-(fluoromethyl)pyrrolidine-2-carboxamide]	< 1000 nM
CC(=O)c1nn(CC(=O)N2[C@H](C(=O)Nc3nc(Br)c(F)cc3C)C[C@@]3(Cc4nc(C)no4)C[C@@H]23)c2c(C)nc(-c3cnc(C)nc3)cc12 [Compound 423, (1R,3S,5R)-2-(2-(3-acetyl-7-methyl-5-(2-methylpyrimidin-5-yl)-1H-pyrazolo[3,4-c]pyridin-l-yl)acetyl)-N-(6-bromo-5-fluoro-3-methylpyridin-2-yl)-5-((3-methyl-1,2,4-oxadiazol-5-yl)methyl)-2-azabicyclo[3.1.0]hexane-3-carboxamide]	< 1000 nM
CC(=O)c1nn(CC(=O)N2[C@H](C(=O)Nc3nc(Br)c(F)cc3C)C[C@@]3(Cc4nc(C)no4)C[C@@H]23)c2c(C)cc(-c3cnc(C)nc3)cc12 [Compound 424, (1R,3S,5R)-2-(2-(3-acetyl-7-methyl-5-(2-methylpyrimidin-5-yl)-1H-indazol-1-yl)acetyl)-N-(6-bromo-5-fluoro-3-methylpyridin-2-yl)-5-((3-methyl-1,2,4-oxadiazol-5-yl)methyl)-2-azabicyclo[3.1.0]hexane-3-carboxamide]	< 1000 nM
CC(=O)c1nn(CC(=O)N2[C@H](C(=O)Nc3nc(C(F)(F)F)ccc3C)C[C@@]3(Cc4nc(C)no4)C[C@@H]23)c2c(C)cc(-c3cnc(C)nc3)cc12 [Compound 425, (1R,3S,5R)-2-(2-(3-acetyl-7-methyl-5-(2-methylpyrimidin-5-yl)-1H-indazol-1-yl)acetyl)-5-((3-methyl-1,2,4-oxadiazol-5-yl)methyl)-N-(3-methyl-6-(trifluoromethyl)pyridin-2-yl)-2-azabicyclo[3.1.0]hexane-3-carboxamide]	< 1000 nM

same assay, conditions: Table 8; Factor D 80 nM, substrate Z-L-Lys-SBz; read-out: IC50

IC50	Structure (SMILES)
< 1000 nM	COC(=O)CCCCCCCCCCCCCCCCC(=O)N[C@@H](CCC(=O)NCCOCCOCC(=O)NCCOCCOCC(=O)NCc1ncc(-c2cc3c(C(C)=O)nn(CC(=O)N4[C@H](C(=O)Nc5nc(Br)ccc5C)C[C@@]5(C)C[C@@H]45)c3cn2)cn1)C(=O)OC [Compound 405]
< 1000 nM	COC(=O)CCCCCCCCCCCCCCCCC(=O)N[C@@H](CCC(=O)NCCOCCOCC(=O)NCCOCCOCC(=O)NC[C@@]12C[C@@H](C(=O)Nc3nc(Br)ccc3C)N(C(=O)Cn3nc(C(C)=O)c4cc(-c5cnc(C)nc5)ncc43)[C@@H]1C2)C(=O)OC [Compound 406]
< 1000 nM	CC(=O)c1nn(CC(=O)N2[C@H](C(=O)Nc3nc(Br)ccc3C)C[C@@]3(C)C[C@@H]23)c2cnc(-c3cnc(CNC(=O)COCCOCCNC(=O)COCCOCCNC(=O)CC[C@H](NC(=O)CCCCCCCCCCCCCCCCC(=O)O)C(=O)O)nc3)cc12 [Compound 414]

Structure (SMILES)	IC50
COC(=O)CCCCCCCCCCCCCCCCC(=O)N[C@@H](CCC(=O)NCCOCCOCC(=O)NCCOCCOCC(=O)NCc1ncc(-c2cc(C)c3c(c2)c(C(C)=O)nn3CC(=O)N2[C@H](C(=O)Nc3nc(Br)ccc3C)C[C@@]3(C)C[C@@H]23)cn1)C(=O)O [Compound 403]	< 1000 nM
CC(=O)c1nn(CC(=O)N2[C@H](C(=O)Nc3nc(Br)ccc3C)C[C@@]3(C)C[C@@H]23)c2c(C)cc(-c3cnc(CNC(=O)COCCOCCNC(=O)COCCOCCNC(=O)CC[C@H](NC(=O)CCCCCCCCCCCCCCCCC(=O)O)C(=O)O)nc3)cc12 [Compound 404]	< 1000 nM
